# Results reported in US11702418B2, “SOS1 inhibitors” (priority 2019, dated 2023).
# pIC50, pKi: −log10 of the molar value.
# How the values were obtained:
# [1] = system: pERK in RL95-2 cells (SOS1 N233Y); experiment: pERK inhibition in SOS1 N233Y mutant RL95-2 cells (Example E); format: cell-based; conditions: Homo sapiens, RL95-2 cell line, 1 hour with compound
# From the text: (§1) Three cell lines harboring SOS1 N233Y activation mutations, LXF289 (DSMZ, Leibniz Institute, Germany) RL95-2 (ATCC CRL-1671); and OCI AML-5 (DSMZ, Leibniz Institute, Germany) were used in the studies.
# [2] = biological target: recombinant human SOS1 polypeptide (amino acids 560-1049) (Homo sapiens (Human), UniProt Q07889); experiment: biochemical; format: binding; conditions: HTRF displacement, Cy5 labelled tracer, Morrison equation for competitive binding; read-out: Ki, Inhibition of Labeled Tracer Binding to SOS1
# [3] = system: pERK in OCI AML-5 cells (SOS1 N233Y); experiment: pERK inhibition in SOS1 N233Y mutant OCI AML-5 cells (Example E); format: cell-based; conditions: Homo sapiens, OCI AML-5 cell line, 1 hour with compound
# From the text: as §1
# [4] = system: pERK in LXF289 cells (SOS1 N233Y); experiment: pERK inhibition in SOS1 N233Y mutant LXF289 cells (Example E); format: cell-based; conditions: Homo sapiens, LXF-289, LXF289 cell line, 1 hour with compound
# From the text: as §1
# pERK in MKN1 cells = experiment: cells; format: cell-based; conditions: Homo sapiens, MKN-1, pERK inhibition, In-Cell Western; MKN1 or H358 cells (Table 24 does not say which); 0.5-1 hour incubation; read-out: IC50
# [5] = system: pERK in NCI-H1435 cells (NF-1 mutant); experiment: pERK inhibition in NF-1 mutant NCI-H1435 cells (Example F); format: cell-based; conditions: NCI-H1435, 1 h, read-out: IC50, pERK inhibition
# Procedure: (§2) The formaldehyde was discarded from the plates and 150 μL of ice-cold methanol was added to permeabilize the cells for 10 minutes at −20° C. The methanol was discarded from each of the plates and any liquid remaining in the plate by tapping the plate against paper towels. […] The plates were incubated overnight at 4° C. on a shaker.
# (§3) On Assay day 2, the primary antibody solution was removed. […] The secondary antibody solution as removed and each plate was washed with PBST 3× times. Any liquid remaining was discarded and the plate was imaged using the Licor Odyssey machine according to the manufacturer's instruction, using a set focus length at 3 mm and both 800 nm and 700 nm filters. The GAPDH normalized scan values for each well were divided by the average of vehicle wells to get the % of pERK inhibition. The IC50 values were then calculated with the Graph pad Prism software.
# [6] = system: pERK in Kasuma-1 (Kasumi) cells (NF-1 mutant); experiment: pERK inhibition in NF-1 mutant Kasumi cells (Example F); format: cell-based; conditions: 1 h, read-out: IC50, pERK inhibition
# Procedure: as §2, §3
# Chain of recombinant human SOS1 polypeptide (amino acids 560-1049) (Q07889 560-1049): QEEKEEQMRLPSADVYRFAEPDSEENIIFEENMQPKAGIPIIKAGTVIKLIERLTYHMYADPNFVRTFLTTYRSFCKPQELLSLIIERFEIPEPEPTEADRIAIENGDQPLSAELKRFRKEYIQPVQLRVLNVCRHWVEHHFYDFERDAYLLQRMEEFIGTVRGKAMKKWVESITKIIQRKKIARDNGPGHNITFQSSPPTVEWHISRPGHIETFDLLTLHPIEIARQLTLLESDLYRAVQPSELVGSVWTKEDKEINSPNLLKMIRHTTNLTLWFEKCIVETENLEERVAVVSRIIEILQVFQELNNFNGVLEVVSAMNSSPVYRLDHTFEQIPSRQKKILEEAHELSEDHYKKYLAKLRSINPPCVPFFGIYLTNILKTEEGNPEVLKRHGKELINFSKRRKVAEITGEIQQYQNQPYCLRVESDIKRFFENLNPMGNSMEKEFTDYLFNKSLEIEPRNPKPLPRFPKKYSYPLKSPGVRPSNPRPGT
smiles,measurement,setting,value
"Cc1c([C@@H](C)Nc2nnc(C)c3ccc(N4CCn5nccc5C4)cc23)cccc1C(F)(F)F [Example 6-10, (R)-7-(6,7-dihydropyrazolo[1,5-a]pyrazin-5(4H)-yl)-4-methyl-N-(1-(2-methyl-3-(trifluoromethyl)phenyl)ethyl)phthalazin-1-amine]",pIC50,[1],6.67
same,pKi,[2],> 11.00
same,pIC50,[3],6.48
same,pIC50,[4],6.53
same,pIC50,pERK in MKN1 cells,6.57
same,pIC50,[5],6.27
same,pIC50,[6],6.04
"Cc1c([C@@H](C)Nc2nnc(C)c3ccc(N4CCOC[C@@H]4C)cc23)cccc1C(F)(F)F [Example 10-6, 4-methyl-N-((R)-1-(2-methyl-3-(trifluoromethyl)phenyl)ethyl)-7-((S)-3-methylmorpholino)phthalazin-1-amine]",pKi,[2],9.19
same,pIC50,pERK in MKN1 cells,7.68
same,pIC50,[5],7.12
"Cc1c([C@@H](C)Nc2nnc(C)c3ccc(N4CCN(C(=O)C5CC5)CC4)cc23)cccc1C(F)(F)F [Example 6-11, (R)-cyclopropyl(4-(1-methyl-4-((1-(2-methyl-3-(trifluoromethyl)phenyl)ethyl)amino)phthalazin-6-yl)piperazin-1-yl)methanone]",pIC50,[1],7.70
same,pKi,[2],8.04
same,pIC50,[3],7.49
same,pIC50,[4],7.39
same,pIC50,pERK in MKN1 cells,7.51
same,pIC50,[5],7.19
same,pIC50,[6],7.01
"Cc1c([C@@H](C)Nc2nnc(C)c3ccc(OC4CNC4)cc23)cccc1C(F)(F)F [Example 7-4, (R)-7-(azetidin-3-yloxy)-4-methyl-N-(1-(2-methyl-3-(trifluoromethyl)phenyl)ethyl)phthalazin-1-amine]",pKi,[2],9.33
same,pIC50,pERK in MKN1 cells,7.85
same,pIC50,[5],7.08
"Cc1c([C@@H](C)Nc2nnc(C)c3ccc(N4CCN(C(=O)[C@@H]5CCOC5)CC4)cc23)cccc1C(F)(F)F [Example 11-4, (4-(1-methyl-4-(((R)-1-(2-methyl-3-(trifluoromethyl)phenyl)ethyl)amino)phthalazin-6-yl)piperazin-1-yl)((R)-tetrahydrofuran-3-yl)methanone]",pKi,[2],11.00
same,pIC50,pERK in MKN1 cells,7.60
same,pIC50,[5],7.72
"Cc1nc(C)n2c1CN(c1ccc3c(C)nnc(N[C@H](C)c4cccc(C(F)(F)F)c4C)c3c1)CC2 [Example 10-11, (R)-7-(1,3-dimethyl-5,6-dihydroimidazo[1,5-a]pyrazin-7(8H)-yl)-4-methyl-N-(1-(2-methyl-3-(trifluoromethyl)phenyl)ethyl)phthalazin-1-amine]",pKi,[2],11.00
same,pIC50,pERK in MKN1 cells,7.66
same,pIC50,[5],7.20
"Cc1c(C(F)F)cccc1[C@@H](C)Nc1nnc(C)c2ccc(N3CCNCC3)cc12 [Example 10-4, (R)-N-(1-(3-(difluoromethyl)-2-methylphenyl)ethyl)-4-methyl-7-(piperazin-1-yl)phthalazin-1-amine]",pKi,[2],10.10
same,pIC50,pERK in MKN1 cells,7.85
same,pIC50,[5],7.48
"Cc1c([C@@H](C)Nc2nnc(C)c3ccc(N4CCC(N(C)C)CC4)cc23)cccc1C(F)(F)F [Example 10-8, (R)-7-(4-(dimethylamino)piperidin-1-yl)-4-methyl-N-(1-(2-methyl-3-(trifluoromethyl)phenyl)ethyl)phthalazin-1-amine]",pKi,[2],10.05
same,pIC50,pERK in MKN1 cells,7.47
same,pIC50,[5],7.03
"Cc1c([C@@H](C)Nc2nnc(C)c3ccc(N4CCN(c5cnn(C)c5)CC4)cc23)cccc1C(F)(F)F [Example 10-10, (R)-4-methyl-7-(4-(1-methyl-1H-pyrazol-4-yl)piperazin-1-yl)-N-(1-(2-methyl-3-(trifluoromethyl)phenyl)ethyl)phthalazin-1-amine]",pKi,[2],11.00
same,pIC50,pERK in MKN1 cells,7.77
same,pIC50,[5],7.82
"CNC1CCN(c2ccc3c(C)nnc(N[C@H](C)c4cccc(C(F)(F)F)c4C)c3c2)CC1 [Example 10-7, (R)-4-methyl-N-(1-(2-methyl-3-(trifluoromethyl)phenyl)ethyl)-7-(4-(methylamino)piperidin-1-yl)phthalazin-1-amine]",pKi,[2],10.15
same,pIC50,pERK in MKN1 cells,7.66
same,pIC50,[5],7.06
"Cc1c([C@@H](C)Nc2nnc(C)c3ccc(N4CCN(C(=O)C5CCOCC5)CC4)cc23)cccc1C(F)(F)F [Example 11-2, (R)-(4-(1-methyl-4-((1-(2-methyl-3-(trifluoromethyl)phenyl)ethyl)amino)phthalazin-6-yl)piperazin-1-yl)(tetrahydro-2H-pyran-4-yl)methanone]",pKi,[2],> 11.00
same,pIC50,pERK in MKN1 cells,7.57
same,pIC50,[5],7.77
"Cc1c([C@@H](C)Nc2nnc(C)c3ccc(N4CCC(C)(N)CC4)cc23)cccc1C(F)(F)F [Example 10-9, (R)-7-(4-amino-4-methylpiperidin-1-yl)-4-methyl-N-(1-(2-methyl-3-(trifluoromethyl)phenyl)ethyl)phthalazin-1-amine]",pKi,[2],10.30
same,pIC50,pERK in MKN1 cells,7.27
same,pIC50,[5],6.82
"CNCc1ccccc1-c1ccc([C@@H](C)Nc2nnc(C)c3ccc(N4CCOCC4)cc23)s1 [Example 6-3, (R)-4-methyl-N-(1-(5-(2-((methylamino)methyl)phenyl)thiophen-2-yl)ethyl)-7-morpholinophthalazin-1-amine]",pKi,[2],10.70
same,pIC50,pERK in MKN1 cells,7.92
same,pIC50,[5],7.60
